In patent US20260217717A1, “CDK2 INHIBITORS” (BLUEPRINT MEDICINES CORPORATION, priority 2023, published 2026):

Columns and labels:
CDK1/Cyclin B1 = target: T1, CDK1/Cyclin B1 (Homo sapiens, UniProt P06493); test: CDK1/Cyclin B1 enzymatic phosphorylation assay (Caliper mobility shift); type: biochemical; conditions: read-out: Enzyme CDK1/cyclin B1 IC50
T1 construct: GST; purchased BPS 40454
Procedure: (§1) Reactions proceeded until between 10% to 20% total peptides were phosphorylated at room temperature (25° C.) and were terminated with 35 mM 2,2′,2″,2′″-(ethane-1,2-diyldinitrilo)tetraacetic acid (EDTA). Product was detected using the Caliper mobility shift detection method where the phosphorylated peptide (product) and substrate were electrophoretically separated and measured. Percent activity was plotted against log concentration of compound and points to generate an apparent IC50.

CDK2/Cyclin E = target: T2, CDK2/Cyclin E (Homo sapiens, UniProt P24941); test: CDK2/Cyclin E enzymatic phosphorylation assay (Caliper mobility shift); type: biochemical; conditions: read-out: Enzyme CDK2/cyclin E IC50; note: 1.0 mM ATP or ATP Km
T2 construct: purchased Eurofins 14-475
Procedure: as §1

T1 sequence (P06493 whole entry): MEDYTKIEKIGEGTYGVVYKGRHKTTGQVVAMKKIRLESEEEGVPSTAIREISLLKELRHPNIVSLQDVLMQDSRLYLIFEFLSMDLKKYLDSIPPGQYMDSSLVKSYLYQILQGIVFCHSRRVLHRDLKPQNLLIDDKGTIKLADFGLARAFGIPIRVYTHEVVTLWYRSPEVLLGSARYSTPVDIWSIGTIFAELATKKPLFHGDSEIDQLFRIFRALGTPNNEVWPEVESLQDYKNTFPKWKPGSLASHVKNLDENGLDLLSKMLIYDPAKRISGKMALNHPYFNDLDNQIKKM
T1 sequence (P14635 whole entry partner): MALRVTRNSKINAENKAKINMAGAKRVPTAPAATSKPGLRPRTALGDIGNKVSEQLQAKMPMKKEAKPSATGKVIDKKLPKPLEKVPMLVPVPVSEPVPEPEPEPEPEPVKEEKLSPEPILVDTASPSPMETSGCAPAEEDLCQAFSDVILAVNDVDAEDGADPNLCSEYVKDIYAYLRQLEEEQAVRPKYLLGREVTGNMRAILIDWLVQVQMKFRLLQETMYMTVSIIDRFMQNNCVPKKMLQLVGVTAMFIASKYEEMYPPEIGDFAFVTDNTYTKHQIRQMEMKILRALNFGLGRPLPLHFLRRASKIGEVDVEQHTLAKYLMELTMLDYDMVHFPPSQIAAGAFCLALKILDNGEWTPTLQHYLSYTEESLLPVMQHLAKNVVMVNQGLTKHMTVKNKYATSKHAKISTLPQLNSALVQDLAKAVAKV

Compound `CC(=O)N1CCC[C@H](n2ncc3ncc(Nc4cc(C(C)C)[nH]n4)nc32)C1` [Example 59, (S)-1-(3-(6-((5-isopropyl-1H-pyrazolo-3-yl)amino)-1H-pyrazolo[3,4-b]pyrazin-1-yl)piperidin-1-yl)ethan-1-one] has an IC50 (CDK1/Cyclin B1) of 2370 nM and an IC50 (CDK2/Cyclin E) of 14.8 nM.

For `Cc1cc(Nc2cnc3cnn([C@@H](C)c4cc(F)ccn4)c3n2)n[nH]1` (single isomer, unassigned) [Example 19, (S)-1-(1-(4-fluoropyridin-2-yl)ethyl)-N-(5-methyl-1H-pyrazol-3-yl)-1H-pyrazolo[3,4-b]pyrazin-6-amine or (R)-1-(1-(4-fluoropyridin-2-yl)ethyl)-N-(5-methyl-1H-pyrazol-3-yl)-1H-pyrazolo[3,4-b]pyrazin-6-amine], the IC50 (CDK1/Cyclin B1) was 1380 nM and the IC50 (CDK2/Cyclin E) was 4.5 nM.

With `CC(=O)N1CCC(n2ncc3ncc(Nc4cc(C(C)C)[nH]n4)nc32)CC1` [Example 58, 1-(4-(6-((5-isopropyl-1H-pyrazol-3-yl)amino)-1H-pyrazolo[3,4-b]pyrazin-1-yl)piperidin-1-yl)ethan-1-one] the IC50 (CDK1/Cyclin B1) was 237 nM and the IC50 (CDK2/Cyclin E) was 3.5 nM.

`CC(C)c1cc(Nc2cnc3cnn(C[C@@H](C)CO)c3n2)n[nH]1` [Example 60, (R)-3-(6-((5-isopropyl-1H-pyrazol-3-yl)amino)-1H-pyrazolo[3,4-b]pyrazin-1-yl)-2-methylpropan-1-ol] gave an IC50 (CDK1/Cyclin B1) of 1570 nM and an IC50 (CDK2/Cyclin E) of 7.9 nM.

For `CC(C)c1cc(Nc2cnc3cnn([C@@H](C)c4cccnc4)c3n2)n[nH]1` [Example 29, (S)-N-(5-isopropyl-1H-pyrazol-3-yl)-1-(1-(pyridin-3-yl)ethyl)-1H-pyrazolo[3,4-b]pyrazin-6-amine], the IC50 (CDK1/Cyclin B1) was 159 nM and the IC50 (CDK2/Cyclin E) was 0.2 nM.

With `CC(C)c1cc(Nc2cnc3cnn(C[C@@H]4CCOC4)c3n2)n[nH]1` (single isomer, unassigned) [Example 12, (S)-N-(5-isopropyl-1H-pyrazol-3-yl)-1-((tetrahydrofuran-3-yl)methyl)-1H-pyrazolo[3,4-b]pyrazin-6-amine or (R)-N-(5-isopropyl-1H-pyrazol-3-yl)-1-((tetrahydrofuran-3-yl)methyl)-1H-pyrazolo[3,4-b]pyrazin-6-amine] the IC50 (CDK1/Cyclin B1) was 119 nM and the IC50 (CDK2/Cyclin E) was 0.5 nM.

With `Cc1nn(CC2CCOCC2)c2nc(Nc3cc(C(C)C)[nH]n3)cnc12` [Example 6, N-(5-isopropyl-1H-pyrazol-3-yl)-3-methyl-1-((tetrahydro-2H-pyran-4-yl)methyl)-1H-pyrazolo[3,4-b]pyrazin-6-amine] the IC50 (CDK1/Cyclin B1) was 388 nM and the IC50 (CDK2/Cyclin E) was 3.7 nM.

Compound `Cc1nn(Cc2cccnc2)c2nc(Nc3cc(C(C)C)[nH]n3)cnc12` [Example 7, N-(5-isopropyl-1H-pyrazol-3-yl)-3-methyl-1-(pyridin-3-ylmethyl)-1H-pyrazolo[3,4-b]pyrazin-6-amine] has an IC50 (CDK1/Cyclin B1) of 234 nM and an IC50 (CDK2/Cyclin E) of 1.3 nM.

`Cc1cc(Nc2cnc3cnn(C[C@H]4CCCOC4)c3n2)n[nH]1` [Example 5, (R)-N-(5-methyl-1H-pyrazol-3-yl)-1-((tetrahydro-2H-pyran-3-yl)methyl)-1H-pyrazolo[3,4-b]pyrazin-6-amine] showed an IC50 (CDK1/Cyclin B1) of 5230 nM and an IC50 (CDK2/Cyclin E) of 57.6 nM.

`Cc1cc(Nc2cnc3c(Cl)nn([C@@H](C)c4cccnc4F)c3n2)n[nH]1` [Example 28, (S)-3-chloro-1-(1-(2-fluoropyridin-3-yl)ethyl)-N-(5-methyl-1H-pyrazol-3-yl)-1H-pyrazolo[3,4-b]pyrazin-6-amine] gave an IC50 (CDK1/Cyclin B1) of 2700 nM and an IC50 (CDK2/Cyclin E) of 5.6 nM.

`Cc1nc2cnn(CC3CCOCC3)c2nc1Nc1cc(C(C)C)[nH]n1` [Example 17, N-(5-isopropyl-1H-pyrazol-3-yl)-5-methyl-1-((tetrahydro-2H-pyran-4-yl)methyl)-1H-pyrazolo[3,4-b]pyrazin-6-amine] showed an IC50 (CDK1/Cyclin B1) of 1650 nM and an IC50 (CDK2/Cyclin E) of 14.8 nM.

Compound `C[C@@H](c1cccc(F)c1)n1ncc2ncc(Nc3cc(C4COC4)[nH]n3)nc21` [Example 51, (S)-1-(1-(3-fluorophenyl)ethyl)-N-(5-(oxetan-3-yl)-1H-pyrazol-3-yl)-1H-pyrazolo[3,4-b]pyrazin-6-amine] has an IC50 (CDK1/Cyclin B1) of 422 nM and an IC50 (CDK2/Cyclin E) of 1.8 nM.

In the case of `Cc1cc(Nc2cnc3cnn([C@@H](C)c4cccnc4)c3n2)n[nH]1` [Example 15, (S)-N-(5-methyl-1H-pyrazol-3-yl)-1-(1-(pyridin-3-yl)ethyl)-1H-pyrazolo[3,4-b]pyrazin-6-amine], the IC50 (CDK1/Cyclin B1) is reported as 5660 nM and the IC50 (CDK2/Cyclin E) is reported as 29.2 nM.

For `C[C@@H](c1cccnc1)n1ncc2ncc(Nc3cc(C4COC4)[nH]n3)nc21` [Example 33, (S)-N-(5-(oxetan-3-yl)-1H-pyrazol-3-yl)-1-(1-(pyridin-3-yl)ethyl)-1H-pyrazolo[3,4-b]pyrazin-6-amine], the IC50 (CDK1/Cyclin B1) was 1420 nM and the IC50 (CDK2/Cyclin E) was 6.4 nM.

Compound `CC[C@H]([C@H](C)O)n1ncc2ncc(Nc3cc(C(C)C)[nH]n3)nc21` (single isomer, unassigned) [Example 14, (2S,3R)-3-(6-((5-isopropyl-1H-pyrazol-3-yl)amino)-1H-pyrazolo[3,4-b]pyrazin-1-yl)pentan-2-ol or (2S,3S)-3-(6-((5-isopropyl-1H-pyrazol-3-yl)amino)-1H-pyrazolo[3,4-b]pyrazin-1-yl)pentan-2-ol] has an IC50 (CDK1/Cyclin B1) of 3130 nM and an IC50 (CDK2/Cyclin E) of 23.9 nM.

With `Cc1cc(Nc2cnc3cnn([C@@H](C)c4cccnc4Cl)c3n2)n[nH]1` [Example 26, (S)-1-(1-(2-chloropyridin-3-yl)ethyl)-N-(5-methyl-1H-pyrazol-3-yl)-1H-pyrazolo[3,4-b]pyrazin-6-amine] the IC50 (CDK1/Cyclin B1) was 1060 nM and the IC50 (CDK2/Cyclin E) was 4.2 nM.

For `C[C@@H](c1ccccc1)n1ncc2ncc(Nc3cc(C4COC4)[nH]n3)nc21` [Example 42, (S)-N-(5-(oxetan-3-yl)-1H-pyrazol-3-yl)-1-(1-phenylethyl)-1H-pyrazolo[3,4-b]pyrazin-6-amine], the IC50 (CDK1/Cyclin B1) was 592 nM and the IC50 (CDK2/Cyclin E) was 2.3 nM.

In the case of `C[C@@H](c1cccnc1)n1ncc2ncc(Nc3cc(C4CC4)[nH]n3)nc21` [Example 31, (S)-N-(5-cyclopropyl-1H-pyrazol-3-yl)-1-(1-(pyridin-3-yl)ethyl)-1H-pyrazolo[3,4-b]pyrazin-6-amine], the IC50 (CDK1/Cyclin B1) is reported as 57.8 nM and the IC50 (CDK2/Cyclin E) is reported as 0.1 nM.

`Cc1nn(Cc2cccnc2)c2nc(Nc3cc(C4COC4)[nH]n3)cnc12` [Example 4, 3-methyl-N-(5-(oxetan-3-yl)-1H-pyrazol-3-yl)-1-(pyridin-3-ylmethyl)-1H-pyrazolo[3,4-b]pyrazin-6-amine] showed an IC50 (CDK1/Cyclin B1) of 5000 nM and an IC50 (CDK2/Cyclin E) of 36.3 nM.

With `CC[C@@H]([C@H](C)O)n1ncc2ncc(Nc3cc(C(C)C)[nH]n3)nc21` (single isomer, unassigned) [Example 13, (2S,3S)-3-(6-((5-isopropyl-1H-pyrazol-3-yl)amino)-1H-pyrazolo[3,4-b]pyrazin-1-yl)pentan-2-ol or (2S,3R)-3-(6-((5-isopropyl-1H-pyrazol-3-yl)amino)-1H-pyrazolo[3,4-b]pyrazin-1-yl)pentan-2-ol] the IC50 (CDK1/Cyclin B1) was 907 nM and the IC50 (CDK2/Cyclin E) was 2.3 nM.

In the case of `C[C@@H](c1cccnc1F)n1ncc2ncc(Nc3cc(C#N)[nH]n3)nc21` [Example 22, (S)-3-((1-(1-(2-fluoropyridin-3-yl)ethyl)-1H-pyrazolo[3,4-b]pyrazin-6-yl)amino)-1H-pyrazole-5-carbonitrile], the IC50 (CDK1/Cyclin B1) is reported as 3460 nM and the IC50 (CDK2/Cyclin E) is reported as 8.8 nM.

`C[C@@H](c1ccccn1)n1ncc2ncc(Nc3cc(C#N)[nH]n3)nc21` [Example 25, (S)-3-((1-(1-(pyridin-2-yl)ethyl)-1H-pyrazolo[3,4-b]pyrazin-6-yl)amino)-1H-pyrazole-5-carbonitrile] was tested, and the IC50 (CDK1/Cyclin B1) was 10000 nM and the IC50 (CDK2/Cyclin E) was 76.1 nM.

In the case of `CC(C)c1cc(Nc2cnc3cnn(CC4CCOCC4)c3n2)n[nH]1` [Example 30, N-(5-isopropyl-1H-pyrazol-3-yl)-1-((tetrahydro-2H-pyran-4-yl)methyl)-1H-pyrazolo[3,4-b]pyrazin-6-amine], the IC50 (CDK1/Cyclin B1) is reported as 113 nM and the IC50 (CDK2/Cyclin E) is reported as 0.6 nM.

`CC(C)c1cc(Nc2cnc3cnn(C[C@H]4CCCOC4)c3n2)n[nH]1` (single isomer, unassigned) [Example 9, (R)-N-(5-isopropyl-1H-pyrazol-3-yl)-1-((tetrahydro-2H-pyran-3-yl)methyl)-1H-pyrazolo[3,4-b] pyrazin-6-amine or (S)-N-(5-isopropyl-1H-pyrazol-3-yl)-1-((tetrahydro-2H-pyran-3-yl)methyl)-1H-pyrazolo[3,4-b]pyrazin-6-amine] was tested, and the IC50 (CDK1/Cyclin B1) was 144 nM and the IC50 (CDK2/Cyclin E) was 0.6 nM.

`Cc1cc(Nc2cnc3cnn([C@@H](C)c4cccnc4F)c3n2)n[nH]1` [Example 56, (S)-1-(1-(2-fluoropyridin-3-yl)ethyl)-N-(5-methyl-1H-pyrazol-3-yl)-1H-pyrazolo[3,4-b]pyrazin-6-amine] showed an IC50 (CDK1/Cyclin B1) of 709 nM and an IC50 (CDK2/Cyclin E) of 3 nM.

In the case of `Fc1ccccc1Cn1ncc2ncc(Nc3cc(C4COC4)[nH]n3)nc21` [Example 45, 1-(2-fluorobenzyl)-N-(5-(oxetan-3-yl)-1H-pyrazol-3-yl)-1H-pyrazolo[3,4-b]pyrazin-6-amine], the IC50 (CDK1/Cyclin B1) is reported as 1380 nM and the IC50 (CDK2/Cyclin E) is reported as 5.3 nM.

With `Cc1nn(CC2CCOCC2)c2nc(Nc3cc(C4COC4)[nH]n3)cnc12` [Example 8, 3-methyl-N-(5-(oxetan-3-yl)-1H-pyrazol-3-yl)-1-((tetrahydro-2H-pyran-4-yl)methyl)-1H-pyrazolo[3,4-b]pyrazin-6-amine] the IC50 (CDK1/Cyclin B1) was 2580 nM and the IC50 (CDK2/Cyclin E) was 37.1 nM.

With `Cc1cc(Nc2cnc3c(Cl)nn([C@@H](C)c4cccnc4)c3n2)n[nH]1` [Example 27, (S)-3-chloro-N-(5-methyl-1H-pyrazol-3-yl)-1-(1-(pyridin-3-yl)ethyl)-1H-pyrazolo[3,4-b]pyrazin-6-amine] the IC50 (CDK1/Cyclin B1) was 10000 nM and the IC50 (CDK2/Cyclin E) was 96.1 nM.

In the case of `O[C@H]1CC[C@H](n2ncc3ncc(Nc4cc(C5COC5)[nH]n4)nc32)CC1` [Example 38, (1r,4r)-4-(6-((5-(oxetan-3-yl)-1H-pyrazol-3-yl)amino)-1H-pyrazolo[3,4-b]pyrazin-1-yl)cyclohexan-1-ol], the IC50 (CDK1/Cyclin B1) is reported as 509 nM and the IC50 (CDK2/Cyclin E) is reported as 3.5 nM.

`C[C@H](c1cc(Nc2cnc3cnn(CC4CCOCC4)c3n2)n[nH]1)C(F)F` (single isomer, unassigned) [Example 20] was tested, and the IC50 (CDK1/Cyclin B1) was 1010 nM and the IC50 (CDK2/Cyclin E) was 7.4 nM.
